Source: patent US20250127728A1, “Constrained Ionizable Cationic Lipids and Lipid Nanoparticles” (CAPSTAN THERAPEUTICS, INC., priority 2023, published 2025)
“Also recorded” adds a separate entry of the source. Read-outs that look alike come from different tables or passages of the source.

Key:
[1] = apparent or measured pKa of ionizable lipid in the lipid nanoparticle, TNS assay; format: physicochemical; conditions: predicted from c-pKa and measured pKa of CICL-207
splenic T cells = assay: in vivo transfection with mCherry mRNA by CD5-targeted tLNP, splenic T cells; conditions: C57BL/6 mice; for transfection rate in spleen T cells: 10 μg mRNA tail vein, 24 hours; for effect of ionizable cationic lipid content (50%, 58%, 62%, 65%) on transfection rate / performance of tLNP: transfection rate and expression level (MESF): in words
Procedure: (§1) To assess the ability of a constrained ionizable cationic lipids to facilitate in vivo transfection of T cells with mCherry mRNA (SEQ ID NO. 5), tLNP incorporating CICL-207, or for comparison, CICL-1, and conjugated to an anti-mouse CD5 antibody were prepared and administered to C57BL/6 mice. The tLNP comprised either CICL-207 or CICL-1, DSPC, cholesterol, either DMG-PEG(2000) or DSG-PEG(2000), and DSPE-PEG(2000)-maleimide in the proportions indicated in Table 7 (below) and an N/P ratio of 6. CICL-1 has the structure:
Briefly, to prepare the tLNP, N1-methylpseudouridine (m1ψ)-substituted mCherry mRNA was encapsulated in LNP using a self-assembly process in which an aqueous solution of mRNA at pH 3.5 was rapidly mixed with a solution of lipids dissolved in ethanol, then followed by stepwise phosphate and Tris buffer dilution and tangential flow filtration (TFF) purification. Then an anti-CD5 mAb was conjugated to the above LNP to generate tLNP. Purified rat anti-mouse CD5 antibody, clone 53-7.3 (BioLegend), was coupled to LNP via N-succinimidyl S-acetylthioacetate (SATA)-maleimide conjugation chemistry. Briefly, LNPs with DSPE-PEG(2000)-maleimide incorporated were formulated and stored at 4° C. on the day of conjugation. The antibody was modified with SATA (Sigma-Aldrich) to introduce sulfhydryl groups at accessible lysine residues allowing conjugation to maleimide. SATA was deprotected using 0.5 M hydroxylamine followed by removal of the unreacted components by G-25 Sephadex Quick Spin Protein columns (Roche Applied Science, Indianapolis, IN). The reactive sulfhydryl group on the antibody was then conjugated to maleimide moieties on the LNPs using thioether conjugation chemistry. Purification was performed using Sepharose CL-4B gel filtration columns (Sigma-Aldrich). tLNPs (LNPs conjugated with a targeting antibody) were frozen at −80° C.
The mice were administered tLNPs containing 10 μg of mRNA by tail vein injection and tissue was harvested 24 hours later. […] These same trends have been observed with tLNP comprising CICL-1 as the ionizable lipid (data not shown). The tLNP comprising 58% ionizable cationic lipid had similarly low transfection rates (<4%) for CD45^− liver cells (hepatocytes)(FIG. 1B). […]

[2] = apparent or measured pKa of ionizable lipid in the lipid nanoparticle, TNS assay; format: physicochemical
Procedure: The apparent or measured pKa of ionizable lipid in the lipid nanoparticle was determined using 6-(p-toluidino)-2-naphthalenesulfonic acid sodium salt (TNS salt, Toronto Research Chemicals, Toronto, ON, Canada). Lipid nanoparticles were diluted in 1×Dulbecco's PBS to a concentration of 1 mM total lipids. TNS salt was prepared as a 1 mg/mL stock solution in DMSO and then further diluted using distilled water to a working solution of 60 μg/mL ([…]). Diluted lipid nanoparticle samples were further diluted to 90 μM total lipids in 165 μL of buffered solution containing 10 mM HEPES, 10 mM MES, 10 mM ammonium acetate, 130 mM NaCl, and final TNS concentration of 1.33 μg/mL (4 μM) with the pH ranging from 3.5 to 12.2. Following pipette mixing and incubation at room temperature in the dark for 15 min, fluorescence intensity was measured at room temperature in a BioTek Synergy H1 plate reader using excitation and emission wavelengths of 321 and 445 nm, respectively. The fluorescence signal was blank subtracted and plotted as a function of the pH, then analyzed using a nonlinear (Boltzmann) regression analysis with the apparent pKa determined as the pH giving rise to half maximal fluorescence intensity as calculated by the Henderson-Hasselbalch equation.

[3] = tolerability of F50 LNP: liver enzymes, acute phase proteins, cytokines; format: in vivo, Sprague Dawley rats; conditions: rats, intravenous, up to 8 mg/kg
Procedure: A study in which various dosages of undecorated F50 LNP encapsulating mCherry mRNA (up to 8 mg/kg) were administered intravenously to 8-week-old male Sprague Dawley rats (Charles River Laboratories). Liver enzymes in serum were determined (FIGS. 12A-B). Acute phase protein (FIGS. 12C-E) and cytokine levels (FIGS. 12F-H) were assessed in plasma by Luminex assay.

[4] = tested on: luciferase mRNA expression in liver, spleen and other organs; assay: luciferase biodistribution (organ bioluminescence) of LNP and CD5-targeted tLNP; format: in vivo, C57Bl/6 mice; conditions: 2 μg mRNA/animal
Procedure: LNP and tLNP with the F9 and F50 composition were prepared as example 66 described, except the payload consisted of mRNA encoding luciferase (SEQ ID NO. 4).
Eight-week-old female C57BI)6 mice (Charles River Laboratories) were intravenously injected with […] or F50 LNPs or CD5-targeted tLNPs encapsulating mRNA encoding luciferase at a dose of 2 μg mRNA/animal via the tail vein. At 6 hours post-injection, prone and supine bioluminescence images were collected from all mice (FIGS. 8A-8B). Following whole-animal imaging, the mice were sacrificed, and the following tissues were collected: liver, spleen, lung, kidneys (both), heart, bone marrow (femur), lymph nodes (left and right inguinal), and brain. Tissues were placed into luciferin pre-filled black polystyrene plates with spacing between tissues, and bioluminescent images were collected at 6 hours and 24 hours post-injection (FIGS. 8C-8D, respectively).

[5] = tested on: liver Kupffer cells (CD45+/CD11+ liver cells); assay: in vivo transfection with mCherry mRNA by CD5-targeted tLNP, liver Kupffer cells; conditions: C57BL/6 mice, 10 μg mRNA tail vein, 24 hours
Procedure: as §1
Briefly, to prepare the tLNP, N1-methylpseudouridine (m1ψ)-substituted mCherry mRNA was encapsulated in LNP using a self-assembly process in which an aqueous solution of mRNA at pH 3.5 was rapidly mixed with a solution of lipids dissolved in ethanol, then followed by stepwise phosphate and Tris buffer dilution and tangential flow filtration (TFF) purification. Then an anti-CD5 mAb was conjugated to the above LNP to generate tLNP. […]
Further ionizable cationic lipids according to Formula M2 were incorporated into tLNP and the ability of the tLNP to transfect cells in vivo assessed essentially as described in the preceding Example. Their physicochemical properties as determined in various experiments are compiled in Table 10.

[6] = tolerability of LNP-containing compositions in rat (general statements); conditions: tLNP, single doses
[7] = Table 11, in tLNP formulation, read-out: Measured pKa
[8] = read-out: measured pKa (in tLNP formulation)

## CCCCCCCCC(=O)OCC(COC(=O)CCCCCCCC)CC(=O)OC[C@@H]1C[C@@H](OC(=O)CC(COC(=O)CCCCCCCC)COC(=O)CCCCCCCC)CN1C(=O)OCCN1CCCCC1 [CICL-207-119]
[1]
  measured pKa in formulation (prediction): close to the desired pKa=6-7 midpoint

## CCCCCCCCC(=O)OCC(COC(=O)CCCCCCCC)CC(=O)OC[C@@H]1C[C@H](OC(=O)CC(COC(=O)CCCCCCCC)COC(=O)CCCCCCCC)CN1C(=O)OCCN(C)C [CICL-224, 2-(2-(((2S,4S)-1-((2-(dimethylamino)ethoxy)carbonyl)-4-((4-(nonanoyloxy)-3-((nonanoyloxy)methyl)butanoyl)oxy)pyrrolidin-2-yl)methoxy)-2-oxoethyl)propane-1,3-diyl dinonanoate]
Splenic T cells
  transfection rate in spleen T cells: below 40%
[2]; [7]
  pKa: 6.98
[2]; [8]
  pKa: ~7

## CCCCCCCCC(=O)OCC(COC(=O)CCCCCCCC)CC(=O)OC[C@H]1C[C@H](OC(=O)CC(COC(=O)CCCCCCCC)COC(=O)CCCCCCCC)CN1C(=O)OCCN(C)C [CICL-225, 2-(2-(((2R,4S)-1-((2-(dimethylamino)ethoxy)carbonyl)-4-((4-(nonanoyloxy)-3-((nonanoyloxy)methyl)butanoyl)oxy)pyrrolidin-2-yl)methoxy)-2-oxoethyl)propane-1,3-diyl dinonanoate]
Splenic T cells
  effect of ionizable cationic lipid content (50%, 58%, 62%, 65%) on transfection rate: greater in both types of liver cells

## CCCCCCCCC(=O)OCC(COC(=O)CCCCCCCC)CC(=O)OC[C@@H]1C[C@@H](OC(=O)CC(COC(=O)CCCCCCCC)COC(=O)CCCCCCCC)CN1C(=O)OCCN(C)c1ccncc1 [CICL-207-130]
[1]
  measured pKa in formulation (prediction): close to the desired pKa=6-7 midpoint

## CCCCCCCCC(=O)OCC(COC(=O)CCCCCCCC)CC(=O)OC[C@@H]1C[C@@H](OC(=O)CC(COC(=O)CCCCCCCC)COC(=O)CCCCCCCC)CN1C(=O)SCCN(C)C [CICL-217, 2-(2-(((2S,4R)-1-(((2-(dimethylamino)ethyl)thio)carbonyl)-4-((4-(nonanoyloxy)-3-((nonanoyloxy)methyl)butanoyl)oxy)pyrrolidin-2-yl)methoxy)-2-oxoethyl)propane-1,3-diyl dinonanoate]
Splenic T cells
  performance of tLNP: transfection rate and expression level (MESF): 3 of the 4 poorest performing tLNP
[2]
  measured pKa (in tLNP formulation): fell outside the range of 6 to 7

## CCCCCCCCC(=O)OCC(COC(=O)CCCCCCCC)CC(=O)OC[C@@H]1C[C@@H](OC(=O)CC(COC(=O)CCCCCCCC)COC(=O)CCCCCCCC)CN1C(=O)OCCN(CCC)CCC [CICL-207-109]
[1]
  measured pKa in formulation (prediction): close to the desired pKa=6-7 midpoint

## CCCCCCCCC(=O)OCC(COC(=O)CCCCCCCC)CC(=O)O[C@@H]1C[C@H](OC(=O)CC(COC(=O)CCCCCCCC)COC(=O)CCCCCCCC)CN(C(=O)OCCN(C)C)C1 [CICL-238, (((Rel-(3R,5S)-1-((2-(dimethylamino)ethoxy)carbonyl)piperidine-3,5-diyl)bis(oxy))bis(2-oxoethane-2,1-diyl))bis(propane-2,1,3-triyl) tetranonanoate]
Splenic T cells
  performance of tLNP: transfection rate and expression level (MESF): 3 of the 4 poorest performing tLNP
[2]; [8]
  pKa: 7.09

## CCCCCCCCC(=O)OCC(COC(=O)CCCCCCCC)CC(=O)O[C@H]1C=C[C@H](OC(=O)CC(COC(=O)CCCCCCCC)COC(=O)CCCCCCCC)CN(C(=O)OCCN(C)C)C1 (racemic) [CICL-218, (((Rel-(3S,6S)-1-((2-(dimethylamino)ethoxy)carbonyl)-2,3,6,7-tetrahydro-1H-azepine-3,6-diyl)bis(oxy))bis(2-oxoethane-2,1-diyl))bis(propane-2,1,3-triyl) tetranonanoate]
Splenic T cells
  transfection rate in spleen T cells: ca. 20%
[2]; [7]
  pKa: 6.07
[2]; [8]
  pKa: 6.11

## CCCCCCCCC(=O)OCC(COC(=O)CCCCCCCC)CC(=O)OC[C@@H]1C[C@H](OC(=O)CC(COC(=O)CCCCCCCC)COC(=O)CCCCCCCC)CN1C(=O)N1CCN(C)CC1 [CICL-239, 2-(2-(((2S,4S)-1-(4-methylpiperazine-1-carbonyl)-4-((4-(nonanoyloxy)-3-((nonanoyloxy)methyl)butanoyl)oxy)pyrrolidin-2-yl)methoxy)-2-oxoethyl)propane-1,3-diyl dinonanoate]
[2]; [7]
  pKa: 6.25
[2]; [8]
  pKa: 6.25

## CCCCCCCCC(=O)OCC(COC(=O)CCCCCCCC)CC(=O)O[C@H]1CN(C(=O)OCCN(C)C)C[C@H]1OC(=O)CC(COC(=O)CCCCCCCC)COC(=O)CCCCCCCC [CICL-216, (((Rel-(3S,4R)-1-((2-(dimethylamino)ethoxy)carbonyl)pyrrolidine-3,4-diyl)bis(oxy))bis(2-oxoethane-2,1-diyl))bis(propane-2,1,3-triyl) tetranonanoate]
Splenic T cells
  performance of tLNP: transfection rate and expression level (MESF): 3 of the 4 poorest performing tLNP
[2]
  measured pKa (in tLNP formulation): fell outside the range of 6 to 7

## CCCCCCCCC(=O)OCC(COC(=O)CCCCCCCC)CC(=O)OC[C@@H]1C[C@@H](OC(=O)CC(COC(=O)CCCCCCCC)COC(=O)CCCCCCCC)CN1C(=O)OCCN(C)C [CICL-207, 2-(2-(((2S,4R)-1-((2-(dimethylamino)ethoxy)carbonyl)-4-((4-(nonanoyloxy)-3((nonanoyloxy)methyl)butanoyl)oxy)pyrrolidin-2-yl)methoxy)-2-oxoethyl)propane-1,3-diyl dinonanoate]
[3]
  tolerability: well tolerated
[4]
  bioluminescence in non-target organs: generally producing the least bioluminescence
[5]
  transfection rate for liver Kupffer cells (CD45+/CD11+): similarly low levels
[6]
  single dose generally well tolerated: at least 8 mg/kg
Splenic T cells
  effect of ionizable cationic lipid content (50%, 58%, 62%, 65%) on transfection rate: greater for CICL-207 than for CICL-225 in splenic T cells; also recorded: decreased performance
  performance of tLNP: transfection rate and expression level (MESF): best performing composition; also recorded: somewhat more desirable transfection rates

## CCCCCCCCC(=O)OCC(COC(=O)CCCCCCCC)CC(=O)OCCN(CCOC(=O)CC(COC(=O)CCCCCCCC)COC(=O)CCCCCCCC)C(=O)OCCN(C)C [CICL-1, reference compound]
[5]
  transfection rate for liver Kupffer cells (CD45+/CD11+): ~6%

## CCCCCCCCC(=O)OCC(COC(=O)CCCCCCCC)CC(=O)OC[C@@H]1C[C@@H](OC(=O)CC(COC(=O)CCCCCCCC)COC(=O)CCCCCCCC)CN1C(=O)OCCCN1CCC(O)CC1 [CICL-207-122]
[1]
  measured pKa in formulation (prediction): close to the desired pKa=6-7 midpoint
